# According to patent US20260234144A1 (TAY THERAPEUTICS LIMITED, priority 2023, published 2026):
# Test system: R223X stop codon in the mutated luciferase gene, ADXC8 luciferase reporter cell line
# Assay: cells
# Type: cell-based
# Conditions: 24 h, ADXC8 cells, 24 hours; for Emax: read-out: Fold Over Control, maximum fold response relative to 200 μM G418; for EC (100% of 200 uM G418 response): read-out: pC100%, negative logarithm of the concentration giving the same response as 200 μM G418
# Method: The read-through activity of compounds was assessed using the ADXC8 luciferase reporter cell line (generated as described in McElroy et al. PLoS Biology (2013), 11, e1001593). […] The amount of luciferase is measured by adding a lysis buffer containing luciferin substrate and detecting luminescence using the following protocol:
# ADXC8 cells in assay media (DMEM+10% FBS) were seeded into 96-well tissue culture treated white plates (Greiner) to a density of 13,000 cells per well and incubated for 24 hours at 37° C. in an atmosphere of 5% CO2. […] Plates were incubated for a further 24 hours at 37° C. in an atmosphere of 5% CO2. Cells treated with 200 μM G418 (with 1% DMSO) were used as a positive control.
# Cell viability and firefly luciferase activity were measured in the same assay wells. CellTiter-Fluor™ reagent was prepared as per manufacturer's instructions (Promega E7120) and 20 μl of 5× CellTiter-Fluor™ reagent was added to all wells, briefly mixed by orbital shaking (300-500 rpm for −30 seconds) and the plates incubated for 30-45 minutes at 37° C. in an atmosphere of 5% C02. Cell viability was measured by monitoring fluorescence on a CLARIOstar® plate reader (BMG Labtech). Cells containing 1% DMSO were used as a positive control and cells with 400 μM Doxorubicin were used as negative control to define 100 and 0% respectively. ONE-Glo™ luciferase assay buffer (Promega E7120) was prepared according to manufacturer's instructions and 100 μl of luciferase reagent was added to each well and the plate incubated at RT for 3 mins before measuring the luminescence on the CLARIOstar® plate reader (BMG Labtech). Cells treated with 200 μM G418 (with 1% DMSO) were used as a positive control and arbitrarily assigned a value of 100%. Cells treated with 1% DMSO were used as the negative control to define 0% response.
# Concentration effect curves were analysed using non-linear regression using the CDD Vault from Collaborative Drug Discovery (Burlingame, CA). […] The bottom and top of the curves were constrained to 0 and the maximum measured response respectively. From the fitted curves, the software derived C100% values (the concentration giving the same response as 200 μM G418) for each compound. The negative logarithm of C100% is reported as pC100% (Table 1). In addition to pC100% values, the maximum fold response relative to 200 μM G418 (Fold over Control) was also captured (Table 1). A pC100% categorisation of ‘-’ in Table 1 represents examples in which a pC100% response was not reached when assayed at a concentration of 100 μM. A pC100% categorisation of ‘*’ in Table 1 represents examples in which a pC100% response was not reached when assayed at a concentration of 30 μM.
Structure (SMILES),Emax,EC (100% of 200 uM G418 response)
"CN1CCC(Nc2cc(N)c3cccnc3n2)CC1 [Example 43, N^2-(1-methylpiperidin-4-yl)-1,8-naphthyridine-2,4-diamine]",100 to 3000%,10 to 100 µM
"Cc1nc2nc(NCCCN3CCOCC3)nc(N)c2c2c1CCC2 [Example 46, 6-methyl-N^3-(3-morpholinopropyl)-8,9-dihydro-7H-cyclopenta[4,5]pyrido[2,3-d]pyrimidine-1,3-diamine]",,0.1 to 1 µM
"Cc1cccc(-c2ccc3c(N)nc(NC4CCN(C)CC4)nc3n2)c1 [Example 49, N^2-(1-methylpiperidin-4-yl)-7-(m-tolyl)pyrido[2,3-d]pyrimidine-2,4-diamine]",,1 to 10 µM
COc1ccccc1-c1ccc2c(N)nc(NC3CCN(C)CC3)nc2n1 [Example 50],,1 to 10 µM
CN1CCC(Nc2nc(N)c3ccc(-c4ccc(C(N)=O)cc4)nc3n2)CC1 [Example 51],0 to 100%,> 100 µM
CN1CCC(Nc2nc(N)c3ccc(-c4cccc(N(C)C)c4)nc3n2)CC1 [Example 52],100 to 3000%,1 to 10 µM
CNc1ccc(-c2ccc3c(N)nc(NC4CCN(C)CC4)nc3n2)cc1 [Example 53],100 to 3000%,1 to 10 µM
CN1CCC(Nc2nc(N)c3ccc(-c4ccc(S(C)(=O)=O)cc4)nc3n2)CC1 [Example 54],0 to 100%,> 100 µM
CN1CCC(Nc2nc(N)c3ccc(-c4cccc(S(N)(=O)=O)c4)nc3n2)CC1 [Example 55],100 to 3000%,10 to 100 µM
CNCc1ccc(-c2ccc3c(N)nc(NC4CCN(C)CC4)nc3n2)cc1 [Example 56],100 to 3000%,10 to 100 µM
CN1CCC(Nc2nc(N)c3ccc(-c4ccc(F)cc4)nc3n2)CC1 [Example 57],100 to 3000%,1 to 10 µM
COCc1ccccc1-c1ccc2c(N)nc(NC3CCN(C)CC3)nc2n1 [Example 58],100 to 3000%,10 to 100 µM
CN(C)Cc1ccccc1-c1ccc2c(N)nc(NC3CCN(C)CC3)nc2n1 [Example 59],0 to 100%,> 100 µM
CC(=O)Nc1ccccc1-c1ccc2c(N)nc(NC3CCN(C)CC3)nc2n1 [Example 60],0 to 100%,> 100 µM
CN1CCC(Nc2nc(N)c3ccc(-c4ccnnc4)nc3n2)CC1 [Example 61],0 to 100%,> 100 µM
CN1CCC(Nc2nc(N)c3ccc(-c4cccc(F)c4)nc3n2)CC1 [Example 62],100 to 3000%,1 to 10 µM
CN1CCC(Nc2nc(N)c3ccc(-c4ccc(CN)cc4)nc3n2)CC1 [Example 63],100 to 3000%,1 to 10 µM
CC(=O)Nc1cccc(-c2ccc3c(N)nc(NC4CCN(C)CC4)nc3n2)c1 [Example 64],0 to 100%,> 100 µM
CN1CCC(Nc2nc(N)c3ccc(-c4ccc(C(F)(F)F)cc4)nc3n2)CC1 [Example 66],0 to 100%,> 100 µM
CN1CCC(Nc2nc(N)c3ccc(-c4cccc(C(F)(F)F)c4)nc3n2)CC1 [Example 67],100 to 3000%,1 to 10 µM
CN1CCC(Nc2nc(N)c3ccc(-c4ccc(N)cc4)nc3n2)CC1 [Example 68],100 to 3000%,10 to 100 µM
CN1CCC(Nc2nc(N)c3ccc(-c4cc(F)ccc4F)nc3n2)CC1 [Example 69],100 to 3000%,1 to 10 µM
CN1CCC(Nc2nc(N)c3ccc(-c4cccc(C(N)=O)c4)nc3n2)CC1 [Example 70],100 to 3000%,10 to 100 µM
CN1CCC(Nc2nc(N)c3ccc(-c4ccc(C(=O)N(C)C)cc4)nc3n2)CC1 [Example 71],0 to 100%,> 100 µM
CN1CCC(Nc2nc(N)c3ccc(-c4ccccc4N(C)C)nc3n2)CC1 [Example 72],0 to 100%,> 100 µM
CC(=O)Nc1ccc(-c2ccc3c(N)nc(NC4CCN(C)CC4)nc3n2)cc1 [Example 73],0 to 100%,> 100 µM
CN1CCC(Nc2nc(N)c3ccc(-c4cccc(CN)c4)nc3n2)CC1 [Example 74],,1 to 10 µM
CN1CCC(Nc2nc(N)c3ccc(-c4ccccc4C(=O)N(C)C)nc3n2)CC1 [Example 75],0 to 100%,> 100 µM

Structure (SMILES),Emax,EC (100% of 200 uM G418 response)
CN(C)Cc1cccc(-c2ccc3c(N)nc(NC4CCN(C)CC4)nc3n2)c1 [Example 76],100 to 3000%,10 to 100 µM
CNC(=O)c1ccc(-c2ccc3c(N)nc(NC4CCN(C)CC4)nc3n2)cc1 [Example 77],0 to 100%,> 100 µM
COCc1ccc(-c2ccc3c(N)nc(NC4CCN(C)CC4)nc3n2)cc1 [Example 78],100 to 3000%,1 to 10 µM
CN1CCC(Nc2nc(N)c3ccc(-c4ccn(C)n4)nc3n2)CC1 [Example 79],0 to 100%,> 100 µM
CNC(=O)c1cccc(-c2ccc3c(N)nc(NC4CCN(C)CC4)nc3n2)c1 [Example 80],100 to 3000%,10 to 100 µM
COCc1cccc(-c2ccc3c(N)nc(NC4CCN(C)CC4)nc3n2)c1 [Example 81],,1 to 10 µM
CSc1ccccc1-c1ccc2c(N)nc(NC3CCN(C)CC3)nc2n1 [Example 82],,1 to 10 µM
CN1CCC(Nc2nc(N)c3ccc(-c4cccc(C(=O)O)c4)nc3n2)CC1 [Example 83],0 to 100%,> 100 µM
CN1CCC(Nc2nc(N)c3ccc(-c4ccc(C(=O)O)cc4)nc3n2)CC1 [Example 84],0 to 100%,> 100 µM
CN1CCC(Nc2nc(N)c3ccc(-c4ccc(F)cc4F)nc3n2)CC1 [Example 85],,1 to 10 µM
CN1CCC(Nc2nc(N)c3ccc(-c4cccc(C(=O)N(C)C)c4)nc3n2)CC1 [Example 86],0 to 100%,> 100 µM
CN1CCC(Nc2nc(N)c3ccc(-c4ccccc4C(=O)O)nc3n2)CC1 [Example 87],0 to 100%,> 100 µM
CN1CCC(Nc2nc(N)c3ccc(-c4ccccc4F)nc3n2)CC1 [Example 88],,1 to 10 µM
CN1CCC(Nc2nc(N)c3ccc(-c4ccccc4CO)nc3n2)CC1 [Example 89],,10 to 100 µM
CN1CCC(Nc2nc(N)c3ccc(-c4ccccc4C(F)(F)F)nc3n2)CC1 [Example 90],100 to 3000%,10 to 100 µM
CN1CCC(Nc2nc(N)c3ccc(-c4cccc(Cl)c4)nc3n2)CC1 [Example 91],,1 to 10 µM
CN1CCC(Nc2nc(N)c3ccc(-c4cccc(CO)c4)nc3n2)CC1 [Example 92],100 to 3000%,10 to 100 µM
CN1CCC(Nc2nc(N)c3ccc(-c4cccc(N)c4)nc3n2)CC1 [Example 93],100 to 3000%,10 to 100 µM
CN1CCC(Nc2nc(N)c3ccc(-c4ccc(CO)cc4)nc3n2)CC1 [Example 94],100 to 3000%,10 to 100 µM
CN1CCC(Nc2nc(N)c3ccc(-c4ccc(C#N)cc4)nc3n2)CC1 [Example 95],,10 to 100 µM
CN1CCC(Nc2nc(N)c3ccc(-c4ccc(Cl)cc4)nc3n2)CC1 [Example 96],,10 to 100 µM
CN1CCC(Nc2nc(N)c3ccc(-c4cccc(S(C)(=O)=O)c4)nc3n2)CC1 [Example 97],,10 to 100 µM
CN1CCC(Nc2nc(N)c3ccc(-c4cncnc4)nc3n2)CC1 [Example 98],0 to 100%,> 100 µM
CSc1cccc(-c2ccc3c(N)nc(NC4CCN(C)CC4)nc3n2)c1 [Example 99],,0.1 to 1 µM
COc1cccc(-c2ccc3c(N)nc(NC4CCN(C)CC4)nc3n2)c1 [Example 100],100 to 3000%,1 to 10 µM
Cc1ccc(-c2ccc3c(N)nc(NC4CCN(C)CC4)nc3n2)cc1 [Example 101],,1 to 10 µM
CN1CCC(Nc2nc(N)c3ccc(-c4ccc(O)cc4)nc3n2)CC1 [Example 102],100 to 3000%,10 to 100 µM
